Measurements published in patent US5047242A, “Azadirachtin derivative insecticides” (Native Plant Institute ("NPI"), priority 1987, dated 1991).
In brackets after ≈: the same amount, converted by molar mass. Entries after “also recorded” stand apart in the source; their conditions may differ.

What was measured:
insects [1] = settings: literature; cited from earlier work
insects [2] = assay: Antifeedant / systemic action; settings: in vivo
Heliothis virescens [3] = assay: Relative activity of UV-irradiated compounds in inhibiting pupal development of fifth-instar larvae; assay type: in vivo; settings: for Relative activity, inhibition of pupal development: relative to non-irradiated counterpart
Protocol: (§1) Azadirachtin, 3-deacetylazadirachtin, 22,23-dihydroazadirachtin, and 2',3',22,23-tetrahydroazadirachtin (1.0 mg/ml absolute ethanol) were placed individually in capped quartz NMR tubes (5×180 mm) and were irradiated with two UV germicidal lights (GE, G30T8, 200-280 nm, 30W) 1.8 m from the source at room temperature for up to 400 h. The controls were identical samples protected from exposure to UV radiation by wrapping with aluminum foil. At selected time intervals, aliquots from both the controls (non-irradiated) and irradiated samples were removed for high-performance liquid chromatography (HPLC) analysis and bioassay (vide infra).
(§2) Individual larvae were injected per os on the first day of the fifth instar with 1.0 μg of either irradiated or non-irradiated compounds dissolved in 1.0 μl of 75% aqueous ethanol.
Table 3: Relative activity of azadirachtin, 3deacetylaza-dirachtin,
22,23dihydroazadirachtin, and 2',3',22,23tetrahydroazadirachtin, all of
which had been exposed for 15, 30, 90, 200, and 400 hours to UV radiation
inhibiting the pupal development of fifthinstar Heliothis virescens
(§3) larvae. Relative activity is defined as the percentage of larvae injected

Heliothis virescens [4] = assay: Relative activity of UV-irradiated compounds in inhibiting adult development of fifth-instar larvae; assay type: in vivo; settings: for Relative activity, inhibition of adult development: relative to non-irradiated counterpart
Protocol: as §1, §2
Table 4: Relative activity of azadirachtin, 3deacetylaza-dirachtin,
22,23dihydroazadirachtin, 2',3',22,23tetrahydroaza-dirachtin, all of whic
had been exposed for 15, 30, 90, 200, and 400 hours to UV radiation, in
inhibiting the adult development of fifthinstar Heliothis virescens
as §3
relative to the percentage injected with its nonirradiated counterpart

[5] = UV stability in ethanol by reversed phase HPLC; assay type: physicochemical
Protocol: Stability of Azadirachtin derivatives was determined as follows:
as §1
Analytical reversed phase HPLC was performed on a phenyl (5μm) column run isocratically with acetonitrile-water (3:7) (Yamasaki et al.) Peaks were detected at 214 nm. The irradiated samples were compared with their corresponding non-UV-irradiated controls by measuring the height of the peak eluting at the appropriate Rt for each irradiated compound relative to each one's non-irradiated control. Results are expressed as the percent of the initial sample concentration remaining relative to the control. Each time point was done in at least triplicate fashion.

Heliothis virescens [6] = assay: Oral injection of fifth-instar larvae, pupal and adult development (non-irradiated compounds); assay type: in vivo
Protocol: as §2
Table 2: Successful and unsuccessful pupal and adult development of
fifthinstar Heliothis Virescens larvae injected orally with 1.0 microgram
of either azadirachtin, 3deacetylazadirachtin, 22,23dihydroazadirachtin,
or 2',3',22,23tetrahydroazadirachtin.

Heliothis virescens [7] = assay: Artificial diet feeding bioassay, mortality and growth inhibition in first-instar larvae; assay type: in vivo, Heliothis virescens (tobacco budworm)
Text: The results of the growth inhibitory and lethal activities of azadirachtin and these 8 derivatives when fed in an artificial diet to Heliothis virescens larvae are shown in Table 1. Similar to the results of Morgan, E. D., in "Natural pesticides from the Neem tree (Azadirachta indica A. Juss), Schmutterer, H., et al., Eds., Proc. First International Neem Conference (Rottach-Egern, 1980), German Agency for Technical Corporation,Eschborn, Germany, 1982, pps. 43-52 (hereinafter "Morgan"), neither deacetylation nor hydrogenation of the carbon-carbon double bond of the dihydrofuran ring moiety of azadirachtin had any significant effect on activity of the compound against H. virescens.
Mortality and growth inhibition in first-instar Heliothis
virescens larvae fed azadirachtin and eight derivatives in an
artificial diet (I. Kubo and J. A. Klocke, In: Plant Resistance to
Insects (P. A. Helin, Ed.), ACS Symposium Series 208, American Chemical
Society, Washington, D.C. (1983), pp. 329-346.).^a
^b LC50 values are the concentrations (ppm) causing 50%
^c EC50 values are the concentrations (ppm) causing 50% growth
^d Numbers in parentheses are the 95% confidence limits determined
using the methods of Litchfield and Wilcoxon, J. Pharmacol. Exp. Ther.
An artificial diet feeding bioassay with neonate larvae of tobacco budworm (Heliothis virescens) and fall armyworm (Spodoptera frugiperda) was used as previously described (Kubo and Klocke, 1983) to detect insecticidal activities in the plant extracts to monitor fractionation, and to determine the potency of the isolated constituents and derivatives. Potency was determined either as the effective concentration (EC50) of added material that is necessary to reduce larval growth to 50% of the control values or as the lethal concentration (LC50) of added material that is necessary to kill 50% of the treated larvae. EC50 and LC50 values were determined from log probit paper and analyzed statistically by the method of Litchfield and Wilcoxon, supra.

[8] = 1.0 microgram injected orally, fifth-instar, non-irradiated
[9] = 1.0 microgram injected orally, % of larvae

SMILES: C/C=C(\C)C(=O)O[C@H]1C[C@@H](OC(C)=O)[C@@]2(C(=O)OC)CO[C@H]3[C@@H](O)[C@@](C)([C@]45O[C@@]4(C)[C@H]4C[C@@H]5O[C@@H]5OC=C[C@@]54O)[C@H]4[C@]1(CO[C@]4(O)C(=O)OC)[C@@H]32 [azadirachtin]
- ecdysis inhibitory activity (in words) (insects [1]): potent ecdysis inhibitory activity; also recorded: same ecdysis inhibitory activity
- antifeedant function (in words) (insects [2]): function as antifeedants
- Relative activity, inhibition of pupal development (Heliothis virescens [3]; 15 h UV exposure): 98.6%
- Relative activity, inhibition of pupal development (Heliothis virescens [3]; 30 h UV exposure): 98.9%
- activity retained after 90 h of exposure to UV radiation (in words) (Heliothis virescens [3]; 90 h UV): retained full activity
- Relative activity, inhibition of pupal development (Heliothis virescens [3]; 90 h UV exposure): 85.7%
- ability to inhibit pupation after UV (in words) (Heliothis virescens [3]; 200 h UV): did decline
- Relative activity, inhibition of pupal development (Heliothis virescens [3]; 200 h UV exposure): 74.2%
- ability to inhibit pupation after UV (in words) (Heliothis virescens [3]; 400 h UV): even greater decline
- activity retained after 400 h of exposure to UV radiation (Heliothis virescens [3]; 400 h UV): approximately 50%
- Relative activity, inhibition of pupal development (Heliothis virescens [3]; 400 h UV exposure): 60.0%
- ability to inhibit pupation after UV (in words) (Heliothis virescens [3]; up to 90 h UV): not appreciably reduced
- Relative activity, inhibition of adult development (Heliothis virescens [4]; 15 h UV exposure): 101.3%
- Relative activity, inhibition of adult development (Heliothis virescens [4]; 30 h UV exposure): 101.3%
- Relative activity, inhibition of adult development (Heliothis virescens [4]; 90 h UV exposure): 97.3%
- ability to inhibit larvae from reaching the adult stage after UV (in words) (Heliothis virescens [4]; 200 h UV): declined sligtly
- Relative activity, inhibition of adult development (Heliothis virescens [4]; 200 h UV exposure): 89.7%
- Relative activity, inhibition of adult development (Heliothis virescens [4]; 400 h UV exposure): 81.1%
- degraded after 90 h of exposure to UV radiation ([5]; 90 h UV): more than 80%
- degradation following 400 h of exposure to UV radiation (in words) ([5]; 400 h UV): none of the three compounds remained in their original state
- T1/2 of UV degradation ([5]; UV 200-280 nm, 1.0 mg/ml ethanol, room temperature): 25 h
- UV lability (in words) ([5]; UV irradiation, HPLC): UV-labile
- kinetics of UV degradation (in words) ([5]; under the conditions used, data not shown): first-order reaction
- Number Adults (Heliothis virescens [6]; [8]): 2 Number
- Number Adults Deformed (Heliothis virescens [6]; [8]): 1 Number
- Number Pupae (Heliothis virescens [6]; [8]): 10 Number
- Unsuccessful Larvae-Pupae (number) (Heliothis virescens [6]; [8]): 5 Number
- Unsuccessful Pupae-Adult (number) (Heliothis virescens [6]; [8]): 0 Number
- Adults (%) (Heliothis virescens [6]; [9]): 1.3%
- Adults Deformed (%) (Heliothis virescens [6]; [9]): 0.7%
- Pupae (%) (Heliothis virescens [6]; [9]): 6.7%
- Unsuccessful Larvae-Pupae (%) (Heliothis virescens [6]; [9]): 3.4%
- Unsuccessful Pupae-Adult (%) (Heliothis virescens [6]; [9]): 0%
- mortality at 0.001 mg (Heliothis virescens [6]; Heliothis virescens, light or radiation study, po, read-out: % Mortality Prior to Adult Stage): 98.7%
- inhibition of pupation (in words) (Heliothis virescens [6]; non-irradiated, 1.0 μg per os): equally effective
- LC50 (Heliothis virescens [7]; Heliothis virescens, po, read-out: LC50 (concentration causing 50% mortality)): 0.8 µg/mL (≈ 1.11 µM)
- EC50 (concentration causing 50% growth inhibition) (Heliothis virescens [7]; Table 1, first-instar Heliothis virescens larvae, artificial diet, parentheses = 95% confidence limits): 0.07 (0.05-0.10) ppm
